Reference: patent US20130252816A1, “HERBICIDAL COMPOSITION AND USE THEREOF” (Syngenta Crop Protection LLC, priority 2010, published 2013)

Columns and labels:
Type in all cases: in vivo
Poa annua [1] = experiment: Example 2: alcohol ethoxylate adjuvants without glyphosate, visual % damage, tracksprayer 300 l/ha
From the text: (§1) The effect of different types of alcohol ethoxylate (branched—Genapol X-series, and unbranched—Genapol O-series, differing degrees of ethoxylation, see Table 3 below for more details), on unwanted vegetation (broadleaf weed and grass species), in the absence of glyphosate, was investigated and compared to untreated (water only) control weeds.
(§2) Troughs (measuring 16 cm by 13 cm by 5 cm) were filled with local field soil. Seeds of Veronica persica, Stellaria media, Trifolium repens and Poa annua were sown 24 days before application of test samples. Plants were grown in the glasshouse at 18 to 20° C. and 60% relative humidity. Application of alcohol ethoxylate test samples was carried out using a tracksprayer, spraying at a rate of 300 l/ha. Plants were kept in glasshouse and visual assessment of the estimated percentage damage to the plant was carried out 1, 7, and 14 days from application.
(§3) Damage was assessed as wilting, desiccation or any other kind of visual injury in comparison to the untreated control (water only).

Veronica persica = experiment: as above
From the text: as §1, §2, §3

Trifolium repens = experiment: as above
From the text: as §1, §2, §3

Stellaria media [2] = experiment: as above
From the text: as §1, §2, §3

Poa annua [3] = experiment: Example 1: adjuvants alone, visual % damage, pots in glasshouse
Description: (§4) The effect of different adjuvants (see Table 1 below) on the growth of broadleaf weed and grass species was investigated and compared to untreated (water only) control weeds.
(§5) Plates, each with 48 pots measuring 2.7 cm diameter and 5 cm deep, were filled with TKS1 growing media (Floragard, Germany). Seeds of Taraxacum officinale, Stellaria media or Poa annua were sown on the surface (10 to 20 per pot). Plants were grown in glasshouse at a temperature of 18 to 20° C. and at 60% relative humidity.
(§6) Plants were treated 15 (Stellaria, Poa) and 34 (Taraxacum) days after sowing with 60 μl of a 1.25, 2.5, 5 and 10% (w/v) solution of adjuvant using a hand airbrush.
(§7) Visual assessment of the percentage damage to the plant was carried out 1 day and 6 days from application.
as §3

Taraxacum officinale = experiment: as above
Description: as §4, §5, §6, §7, §3

Stellaria media [4] = experiment: as above
Description: as §4, §5, §6, §7, §3

“Oleyl alcohol polyglycol ether with 8 moles of ethoxylation [GenapolO080]” was tested, and the “mean % damage 1 daa Poa annua” value (Poa annua [1]; adjuvant 1% w/v) was 0%, the “mean % damage 7 daa Poa annua” value (Poa annua [1]; adjuvant 1% w/v) was 5% and the “mean % damage 14 daa Poa annua” value (Poa annua [1]; adjuvant 1% w/v) was 0%. For the same substance, the “mean % damage 1 daa Poa annua” value (Poa annua [1]; adjuvant 1.5% w/v) was 0%, the “mean % damage 7 daa Poa annua” value (Poa annua [1]; adjuvant 1.5% w/v) was 5% and the “mean % damage 14 daa Poa annua” value (Poa annua [1]; adjuvant 1.5% w/v) was 0%. For the same substance, the “mean % damage 1 daa Poa annua” value (Poa annua [1]; adjuvant 2% w/v) was 0%, the “mean % damage 7 daa Poa annua” value (Poa annua [1]; adjuvant 2% w/v) was 5% and the “mean % damage 14 daa Poa annua” value (Poa annua [1]; adjuvant 2% w/v) was 0%. For the same substance, the “mean % damage 1 daa Poa annua” value (Poa annua [1]; adjuvant 2.5% w/v) was 0%, the “mean % damage 7 daa Poa annua” value (Poa annua [1]; adjuvant 2.5% w/v) was 5% and the “mean % damage 14 daa Poa annua” value (Poa annua [1]; adjuvant 2.5% w/v) was 0%. For the same substance, the “mean % damage 1 daa Veronica persica” value (Veronica persica; adjuvant 1% w/v) was 0%, the “mean % damage 7 daa Veronica persica” value (Veronica persica; adjuvant 1% w/v) was 5% and the “mean % damage 14 daa Veronica persica” value (Veronica persica; adjuvant 1% w/v) was 10%. The “mean % damage 1 daa Veronica persica” value (Veronica persica; adjuvant 1.5% w/v) was 0%, the “mean % damage 7 daa Veronica persica” value (Veronica persica; adjuvant 1.5% w/v) was 0% and the “mean % damage 14 daa Veronica persica” value (Veronica persica; adjuvant 1.5% w/v) was 10%. The “mean % damage 1 daa Veronica persica” value (Veronica persica; adjuvant 2% w/v) was 0%, the “mean % damage 7 daa Veronica persica” value (Veronica persica; adjuvant 2% w/v) was 0% and the “mean % damage 14 daa Veronica persica” value (Veronica persica; adjuvant 2% w/v) was 0%. For the same substance, the “mean % damage 1 daa Veronica persica” value (Veronica persica; adjuvant 2.5% w/v) was 0%, the “mean % damage 7 daa Veronica persica” value (Veronica persica; adjuvant 2.5% w/v) was 5% and the “mean % damage 14 daa Veronica persica” value (Veronica persica; adjuvant 2.5% w/v) was 0%. The “mean % damage 1 daa Trifolium repens” value (Trifolium repens; adjuvant 1% w/v) was 0%, the “mean % damage 7 daa Trifolium repens” value (Trifolium repens; adjuvant 1% w/v) was 0% and the “mean % damage 14 daa Trifolium repens” value (Trifolium repens; adjuvant 1% w/v) was 0%. The “mean % damage 1 daa Trifolium repens” value (Trifolium repens; adjuvant 1.5% w/v) was 0%, the “mean % damage 7 daa Trifolium repens” value (Trifolium repens; adjuvant 1.5% w/v) was 0% and the “mean % damage 14 daa Trifolium repens” value (Trifolium repens; adjuvant 1.5% w/v) was 0%. The “mean % damage 1 daa Trifolium repens” value (Trifolium repens; adjuvant 2% w/v) was 5%, the “mean % damage 7 daa Trifolium repens” value (Trifolium repens; adjuvant 2% w/v) was 0% and the “mean % damage 14 daa Trifolium repens” value (Trifolium repens; adjuvant 2% w/v) was 0%. The “mean % damage 1 daa Trifolium repens” value (Trifolium repens; adjuvant 2.5% w/v) was 5%, the “mean % damage 7 daa Trifolium repens” value (Trifolium repens; adjuvant 2.5% w/v) was 10% and the “mean % damage 14 daa Trifolium repens” value (Trifolium repens; adjuvant 2.5% w/v) was 10%. For the same substance, the “mean % damage 1 daa Stellaria media” value (Stellaria media [2]; adjuvant 1% w/v) was 0%, the “mean % damage 7 daa Stellaria media” value (Stellaria media [2]; adjuvant 1% w/v) was 0% and the “mean % damage 14 daa Stellaria media” value (Stellaria media [2]; adjuvant 1% w/v) was 0%. For the same substance, the “mean % damage 1 daa Stellaria media” value (Stellaria media [2]; adjuvant 1.5% w/v) was 0%, the “mean % damage 7 daa Stellaria media” value (Stellaria media [2]; adjuvant 1.5% w/v) was 0% and the “mean % damage 14 daa Stellaria media” value (Stellaria media [2]; adjuvant 1.5% w/v) was 5%. The “mean % damage 1 daa Stellaria media” value (Stellaria media [2]; adjuvant 2% w/v) was 0%, the “mean % damage 7 daa Stellaria media” value (Stellaria media [2]; adjuvant 2% w/v) was 5% and the “mean % damage 14 daa Stellaria media” value (Stellaria media [2]; adjuvant 2% w/v) was 0%. The “mean % damage 1 daa Stellaria media” value (Stellaria media [2]; adjuvant 2.5% w/v) was 0%, the “mean % damage 7 daa Stellaria media” value (Stellaria media [2]; adjuvant 2.5% w/v) was 0% and the “mean % damage 14 daa Stellaria media” value (Stellaria media [2]; adjuvant 2.5% w/v) was 10%.

For “Oleyl alcohol polyglycol ether with 10 moles of ethoxylation [GenapolO100]”, the “avg % damage 1 DAA Poa annua” value (Poa annua [3]; adjuvant 1.25% w/v) was 0%, the “avg % damage 6 DAA Poa annua” value (Poa annua [3]; adjuvant 1.25% w/v) was 5% and the “avg % damage 1 DAA Poa annua” value (Poa annua [3]; adjuvant 2.5% w/v) was 0%. For the same substance, the “avg % damage 6 DAA Poa annua” value (Poa annua [3]; adjuvant 2.5% w/v) was 10%, the “avg % damage 1 DAA Poa annua” value (Poa annua [3]; adjuvant 5% w/v) was 0% and the “avg % damage 6 DAA Poa annua” value (Poa annua [3]; adjuvant 5% w/v) was 10%. The “avg % damage 1 DAA Poa annua” value (Poa annua [3]; adjuvant 10% w/v) was 0%, the “avg % damage 6 DAA Poa annua” value (Poa annua [3]; adjuvant 10% w/v) was 10% and the “avg % damage 1 DAA Taraxacum officinale” value (Taraxacum officinale; adjuvant 1.25% w/v) was 0%. For the same substance, the “avg % damage 6 DAA Taraxacum officinale” value (Taraxacum officinale; adjuvant 1.25% w/v) was 0%, the “avg % damage 1 DAA Taraxacum officinale” value (Taraxacum officinale; adjuvant 2.5% w/v) was 5% and the “avg % damage 6 DAA Taraxacum officinale” value (Taraxacum officinale; adjuvant 2.5% w/v) was 0%. The “avg % damage 1 DAA Taraxacum officinale” value (Taraxacum officinale; adjuvant 5% w/v) was 5%, the “avg % damage 6 DAA Taraxacum officinale” value (Taraxacum officinale; adjuvant 5% w/v) was 0% and the “avg % damage 1 DAA Taraxacum officinale” value (Taraxacum officinale; adjuvant 10% w/v) was 5%. For the same substance, the “avg % damage 6 DAA Taraxacum officinale” value (Taraxacum officinale; adjuvant 10% w/v) was 0%, the “avg % damage 1 DAA Stellaria media” value (Stellaria media [4]; adjuvant 1.25% w/v) was 0% and the “avg % damage 6 DAA Stellaria media” value (Stellaria media [4]; adjuvant 1.25% w/v) was 5%. The “avg % damage 1 DAA Stellaria media” value (Stellaria media [4]; adjuvant 2.5% w/v) was 5%, the “avg % damage 6 DAA Stellaria media” value (Stellaria media [4]; adjuvant 2.5% w/v) was 10% and the “avg % damage 1 DAA Stellaria media” value (Stellaria media [4]; adjuvant 5% w/v) was 15%. The “avg % damage 6 DAA Stellaria media” value (Stellaria media [4]; adjuvant 5% w/v) was 30%, the “avg % damage 1 DAA Stellaria media” value (Stellaria media [4]; adjuvant 10% w/v) was 50% and the “avg % damage 6 DAA Stellaria media” value (Stellaria media [4]; adjuvant 10% w/v) was 55%.

In the case of “Oleyl alcohol polyglycol ether with 15 moles of ethoxylation [GenapolO150]”, the “avg % damage 1 DAA Poa annua” value (Poa annua [3]; adjuvant 1.25% w/v) is reported as 0%, the “avg % damage 6 DAA Poa annua” value (Poa annua [3]; adjuvant 1.25% w/v) is reported as 0% and the “avg % damage 1 DAA Poa annua” value (Poa annua [3]; adjuvant 2.5% w/v) is reported as 0%. For the same substance, the “avg % damage 6 DAA Poa annua” value (Poa annua [3]; adjuvant 2.5% w/v) was 0%, the “avg % damage 1 DAA Poa annua” value (Poa annua [3]; adjuvant 5% w/v) was 0% and the “avg % damage 6 DAA Poa annua” value (Poa annua [3]; adjuvant 5% w/v) was 0%. The “avg % damage 1 DAA Poa annua” value (Poa annua [3]; adjuvant 10% w/v) was 0%, the “avg % damage 6 DAA Poa annua” value (Poa annua [3]; adjuvant 10% w/v) was 0% and the “avg % damage 1 DAA Taraxacum officinale” value (Taraxacum officinale; adjuvant 1.25% w/v) was 0%. The “avg % damage 6 DAA Taraxacum officinale” value (Taraxacum officinale; adjuvant 1.25% w/v) was 3%, the “avg % damage 1 DAA Taraxacum officinale” value (Taraxacum officinale; adjuvant 2.5% w/v) was 0% and the “avg % damage 6 DAA Taraxacum officinale” value (Taraxacum officinale; adjuvant 2.5% w/v) was 0%. For the same substance, the “avg % damage 1 DAA Taraxacum officinale” value (Taraxacum officinale; adjuvant 5% w/v) was 5%, the “avg % damage 6 DAA Taraxacum officinale” value (Taraxacum officinale; adjuvant 5% w/v) was 3% and the “avg % damage 1 DAA Taraxacum officinale” value (Taraxacum officinale; adjuvant 10% w/v) was 5%. The “avg % damage 6 DAA Taraxacum officinale” value (Taraxacum officinale; adjuvant 10% w/v) was 3%, the “avg % damage 1 DAA Stellaria media” value (Stellaria media [4]; adjuvant 1.25% w/v) was 0% and the “avg % damage 6 DAA Stellaria media” value (Stellaria media [4]; adjuvant 1.25% w/v) was 5%. For the same substance, the “avg % damage 1 DAA Stellaria media” value (Stellaria media [4]; adjuvant 2.5% w/v) was 0%, the “avg % damage 6 DAA Stellaria media” value (Stellaria media [4]; adjuvant 2.5% w/v) was 20% and the “avg % damage 1 DAA Stellaria media” value (Stellaria media [4]; adjuvant 5% w/v) was 13%. For the same substance, the “avg % damage 6 DAA Stellaria media” value (Stellaria media [4]; adjuvant 5% w/v) was 30%, the “avg % damage 1 DAA Stellaria media” value (Stellaria media [4]; adjuvant 10% w/v) was 43% and the “avg % damage 6 DAA Stellaria media” value (Stellaria media [4]; adjuvant 10% w/v) was 60%.
